Counter-ions that a name gives are not always drawn.
Tests used:
human 5-HT2A receptor = molecular target: T1, human 5-HT2A receptor (Homo sapiens, UniProt P28223); test: Intracellular calcium flux assay, HEK 293 cells stably expressing 5-HT2A; assay type: cell-based; conditions: for 5-HT2A efficacy as percentage of the maximal 5-HT response ± SD / EC50: calcium flux, at least three independent experiments; for 5-HT2A response as percentage of the maximal 5-HT response @ 10,000: EC50 not reached; for EC50: each in triplicate, read-out: 5-HT2A mean EC50 ± SD; for Emax at 10 µM: HEK293, read-out: 5-HT2A functional activity (N/A class);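 for all read-outs here: fluorescent calcium dye read on FLIPR Tetra, peak signal above baseline within 60 s after compound addition, seven concentrations spanning 10 pM to 10 µM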
T1 construct: expressed in transfected cells; host or cells: HEK 293
T1 sequence (P28223 whole entry): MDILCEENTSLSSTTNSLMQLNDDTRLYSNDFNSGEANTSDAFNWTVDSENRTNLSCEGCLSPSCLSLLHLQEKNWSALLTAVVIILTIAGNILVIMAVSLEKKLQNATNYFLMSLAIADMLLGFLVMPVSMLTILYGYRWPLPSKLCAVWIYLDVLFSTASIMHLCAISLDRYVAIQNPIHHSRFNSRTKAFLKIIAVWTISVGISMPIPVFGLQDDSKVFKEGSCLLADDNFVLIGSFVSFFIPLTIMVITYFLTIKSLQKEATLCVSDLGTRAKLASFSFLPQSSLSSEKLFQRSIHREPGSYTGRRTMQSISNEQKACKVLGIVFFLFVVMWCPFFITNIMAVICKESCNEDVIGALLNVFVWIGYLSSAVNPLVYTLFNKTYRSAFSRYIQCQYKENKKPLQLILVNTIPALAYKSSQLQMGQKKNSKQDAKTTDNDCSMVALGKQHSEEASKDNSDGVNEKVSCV

5-HT2C = molecular target: T2, 5-HT2C (Homo sapiens, UniProt P28335); test: Intracellular calcium flux assay, HEK 293 cells stably expressing 5-HT2C; assay type: cell-based; design: expressed in transfected cells; host or cells: HEK 293; conditions: for Emax: HEK293, read-out: 5-HT2C efficacy as percentage of the maximal 5-HT response ± SD, at least three independent experiments, entries marked a (42, 50, 51, 52) single measurements; for EC50: read-out: 5-HT2C mean EC50 ± SD;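 for all read-outs here: calcium dye fluorescence read on FLIPR Tetra as peak signal above baseline within 60 s of compound addition, seven concentrations from 10 pM to 10 µM, each in triplicate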
T2 sequence (P28335 33-458): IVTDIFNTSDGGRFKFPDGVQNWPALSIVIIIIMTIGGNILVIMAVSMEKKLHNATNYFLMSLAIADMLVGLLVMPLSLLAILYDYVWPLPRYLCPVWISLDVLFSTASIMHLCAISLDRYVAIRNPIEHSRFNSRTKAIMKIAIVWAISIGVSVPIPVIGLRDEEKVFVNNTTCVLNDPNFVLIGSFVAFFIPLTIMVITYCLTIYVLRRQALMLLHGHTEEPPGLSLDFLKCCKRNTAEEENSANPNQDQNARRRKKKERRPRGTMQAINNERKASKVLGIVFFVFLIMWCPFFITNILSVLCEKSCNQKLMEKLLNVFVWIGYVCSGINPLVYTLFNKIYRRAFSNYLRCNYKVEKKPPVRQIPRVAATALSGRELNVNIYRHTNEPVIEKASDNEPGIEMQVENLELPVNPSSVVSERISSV

human 5-HT2B receptor = molecular target: T3, human 5-HT2B receptor (Homo sapiens, UniProt P41595); test: Intracellular calcium flux assay, HEK 293 cells stably expressing 5-HT2B; assay type: cell-based; conditions: for Emax at 10 µM: HEK293, read-out: 5-HT2B functional activity (N/A class); for EC50 / Emax: calcium flux, at least three independent experiments; for EC50: each in triplicate, read-out: 5-HT2B mean EC50 ± SD; for Emax: HEK293, read-out: 5-HT2B efficacy as percentage of the maximal 5-HT response ± SD;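 for all read-outs here: calcium dye fluorescence read on a FLIPR Tetra, peak signal above baseline within 60 s after compound addition, seven-point concentration series from 10 pM up to 10 µM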
T3 construct: expressed in transfected cells; host or cells: HEK 293
T3 sequence (P41595 whole entry): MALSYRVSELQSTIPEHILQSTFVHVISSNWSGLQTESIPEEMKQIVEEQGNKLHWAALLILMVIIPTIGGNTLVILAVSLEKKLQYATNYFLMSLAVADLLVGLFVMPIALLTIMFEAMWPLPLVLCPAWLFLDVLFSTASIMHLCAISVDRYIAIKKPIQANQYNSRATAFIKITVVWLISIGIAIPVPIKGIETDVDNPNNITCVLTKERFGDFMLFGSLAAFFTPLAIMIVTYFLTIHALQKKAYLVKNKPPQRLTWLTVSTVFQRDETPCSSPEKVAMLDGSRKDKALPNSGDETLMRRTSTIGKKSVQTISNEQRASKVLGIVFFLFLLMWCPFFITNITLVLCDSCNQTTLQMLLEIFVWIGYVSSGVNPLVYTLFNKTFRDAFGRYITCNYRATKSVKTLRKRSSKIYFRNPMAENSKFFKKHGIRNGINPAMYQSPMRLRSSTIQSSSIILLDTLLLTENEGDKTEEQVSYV

[1] = at least three independent experiments, entries marked a (42, 50, 51, 52) single measurements

Q: Which melting point does the source give for `CCCOc1c(F)ccc2c1c(CCN(C)C)cn2CCC.Cl` here?
A: Its melting point is 142 to 145 °C.

Q: For `NCCc1c[nH]c2ccc(O)cc12` [Compound 5-HT, 5-hydroxytryptamine, reference compound], which “5-HT2A efficacy as percentage of the maximal 5-HT response ± SD” value (human 5-HT2A receptor) is on record?
A: The value was “(100%)”.

Q: For `CCn1cc(CCN(C)C)c2c(OC)ccc(F)c21` [Compound 23, 2-(1-Ethyl-7-fluoro-4-methoxy-1H-indol-3-yl)-N,N-dimethylethanamine], which Emax (5-HT2C) is on record?
A: The Emax was 71%.

Q: And the EC50 (5-HT2C; [1])?
A: Its EC50 is 13 ± 1.74 nM.

Q: And the Emax at 10 µM (human 5-HT2B receptor; at 10,000 nM)?
A: The Emax at 10 µM was less than 10%.

Q: What about the “5-HT2A response as percentage of the maximal 5-HT response @ 10,000” value (human 5-HT2A receptor; at 10,000 nM) of the same compound?
A: Its value is “(17 ± 3.7 @ 10,000) %”.

Q: And the EC50 (human 5-HT2A receptor)?
A: The EC50 was greater than 10000 nM.

Q: What does the source list for `CCOc1ccc(F)c2c1c(CCN(C)C)cn2CC` [Compound 24, 2-(4-Ethoxy-1-ethyl-7-fluoro-1H-indol-3-yl)-N,N-dimethylethanamine]?
A: Emax (5-HT2C): 77%; EC50 (5-HT2C; [1]): 57 ± 17.1 nM; 5-HT2B response as percentage of the maximal 5-HT response @ 10,000 (human 5-HT2B receptor; at 10,000 nM, EC50 not reached): (14 ± 4.8 @ 10,000) %; EC50 (human 5-HT2B receptor): > 5000 nM; 5-HT2A response as percentage of the maximal 5-HT response @ 10,000 (human 5-HT2A receptor; at 10,000 nM): (21 ± 5.5 @ 10,000) %; EC50 (human 5-HT2A receptor): > 2000 nM; melting point: 59 to 60 °C

Q: For `CCCOc1ccc(F)c2c1c(CCN(C)C)cn2CC` [Compound 25, 2-(1-Ethyl-7-fluoro-4-propoxy-1H-indol-3-yl)-N,N-dimethylethanamine], which Emax (5-HT2C) is on record?
A: The Emax was 75%.

Q: What about the EC50 (5-HT2C; [1]) of the same compound?
A: Its EC50 is 168 ± 27.2 nM.

Q: And the Emax (human 5-HT2B receptor)?
A: The Emax was 31%.

Q: What about the EC50 (human 5-HT2B receptor) of the same compound?
A: The EC50 was 1450 nM.

Q: And the Emax at 10 µM (human 5-HT2A receptor; at 10,000 nM)?
A: The Emax at 10 µM was less than 10%.

Q: And the melting point?
A: The melting point was 49 to 50 °C.

Q: Which Emax (5-HT2C) does the source give for `CCOc1ccc(F)c2c1c(CCN(C)C)cn2C` [Compound 26, 2-(4-Ethoxy-7-fluoro-1-methyl-1H-indol-3-yl)-N,N-dimethylethanamine] here?
A: The Emax was 82%.

Q: And the EC50 (5-HT2C; [1])?
A: The EC50 was 43 ± 18.8 nM.

Q: What about the Emax (human 5-HT2B receptor) of the same compound?
A: Its Emax is 28%.

Q: What about the EC50 (human 5-HT2B receptor) of the same compound?
A: Its EC50 is 217 ± 95.9 nM.

Q: And the “5-HT2A efficacy as percentage of the maximal 5-HT response ± SD” value (human 5-HT2A receptor)?
A: Its value is “(25 ± 4.1%)”.

Q: And the EC50 (human 5-HT2A receptor)?
A: Its EC50 is 1490 nM.

Q: Which Emax (5-HT2C) does the source give for `CCCOc1ccc(F)c2c1c(CCN(C)C)cn2C` [Compound 27, 2-(7-Fluoro-1-methyl-4-propoxy-1H-indol-3-yl)-N,N-dimethylethanamine] here?
A: Its Emax is 75%.

Q: What about the EC50 (5-HT2C; [1]) of the same compound?
A: Its EC50 is 96 ± 19.8 nM.

Q: What about the Emax (human 5-HT2B receptor) of the same compound?
A: Its Emax is 54%.

Q: And the EC50 (human 5-HT2B receptor)?
A: Its EC50 is 334 ± 88.7 nM.

Q: What about the Emax at 10 µM (human 5-HT2A receptor; at 10,000 nM) of the same compound?
A: The Emax at 10 µM was less than 10%.

Q: With `CCCn1cc(CCN(C)C)c2c(OC)ccc(F)c21` [Compound 28, 2-(7-Fluoro-4-methoxy-1-propyl-1H-indol-3-yl)-N,N-dimethylethanamine] as the compound, how does the Emax (5-HT2C) read?
A: Its Emax is 45%.

Q: And the EC50 (5-HT2C; [1])?
A: Its EC50 is 76 ± 39.1 nM.

Q: What about the Emax at 10 µM (human 5-HT2B receptor; at 10,000 nM) of the same compound?
A: Its Emax at 10 µM is less than 10%.

Q: What about the Emax at 10 µM (human 5-HT2A receptor; at 10,000 nM) of the same compound?
A: Its Emax at 10 µM is less than 10%.

Q: With `CCCn1cc(CCN(C)C)c2c(OCC)ccc(F)c21` [Compound 29, 2-(4-Ethoxy-7-fluoro-1-propyl-1H-indol-3-yl)-N,N-dimethylethanamine] as the compound, how does the Emax (5-HT2C) read?
A: Its Emax is 43%.

Q: And the EC50 (5-HT2C; [1])?
A: The EC50 was 346 ± 97 nM.

Q: What about the Emax at 10 µM (human 5-HT2B receptor; at 10,000 nM) of the same compound?
A: The Emax at 10 µM was less than 10%.

Q: And the Emax at 10 µM (human 5-HT2A receptor; at 10,000 nM)?
A: The Emax at 10 µM was less than 10%.

Q: With `CCCOc1ccc(F)c2c1c(CCN(C)C)cn2CCC` [Compound 30, 2-(7-Fluoro-4-propoxy-1-propyl-1H-indol-3-yl)-N,N-dimethylethanamine] as the compound, how does the Emax (5-HT2C) read?
A: Its Emax is 37%.

Q: And the EC50 (5-HT2C; [1])?
A: The EC50 was 858 ± 289 nM.

Q: And the Emax at 10 µM (human 5-HT2B receptor; at 10,000 nM)?
A: The Emax at 10 µM was less than 10%.

Q: And the Emax at 10 µM (human 5-HT2A receptor; at 10,000 nM)?
A: The Emax at 10 µM was less than 10%.

Q: Which results are given for `COc1cc(F)cc2c1c(CCN(C)C)cn2C.Cl` [Compound 31, 2-(6-Fluoro-4-methoxy-1-methyl-1H-indol-3-yl)-N,N-dimethylethanamine hydrochloride]?
A: Emax (5-HT2C): 87%; EC50 (5-HT2C; [1]): 9.9 ± 3.27 nM; Emax (human 5-HT2B receptor): 51%; EC50 (human 5-HT2B receptor): 55 ± 7.77 nM; 5-HT2A response as percentage of the maximal 5-HT response @ 10,000 (human 5-HT2A receptor; at 10,000 nM): (21 ± 7.9 @ 10,000) %; EC50 (human 5-HT2A receptor): > 10000 nM; melting point: 260.6 to 261.3 °C

Q: What does the source list for `CCOc1c(F)ccc2c1c(CCN(C)C)cn2C` [Compound 59, 2-(4-Ethoxy-5-fluoro-1-methyl-1H-indol-3-yl)-N,N-dimethylethanamine hydrochloride]?
A: Emax (5-HT2C): 51%; EC50 (5-HT2C; [1]): 0.82 ± 0.23 nM; Emax at 10 µM (human 5-HT2B receptor; at 10,000 nM): < 10%; Emax at 10 µM (human 5-HT2A receptor; at 10,000 nM): < 10%

Q: Which “5-HT2C efficacy as percentage of the maximal 5-HT response ± SD” value (5-HT2C; [1]) does the source give for `CCn1cc(CCN(C)C)c2cc(F)c(O)cc21` [Compound 83, 3-[2-(Dimethylamino-ethyl)]-1-ethyl-5-fluoro-1H-indol-6-ol] here?
A: The value was “(73 ± 4%)”.

Q: What about the EC50 (5-HT2C; [1]) of the same compound?
A: Its EC50 is 221 ± 27 nM.

Q: What about the “5-HT2B functional activity (N/A class)” value (human 5-HT2B receptor; at 10,000 nM) of the same compound?
A: Its value is “N/A (N/A: <10% max HT @ 10,000 nM)”.

Q: What about the “5-HT2A functional activity (N/A class)” value (human 5-HT2A receptor; at 10,000 nM) of the same compound?
A: The value was “N/A (N/A: <10% max HT @ 10,000 nM)”.
